Laboratory results as given in patent publication US20240109855A1, “ANTI-QUORUM SENSING, ANTI-BIOFILM, AND INFLAMMATION ATTENUATING COMPOUNDS, COMPOSITIONS, AND METHODS OF USING SAME” (priority 2021, published 2024).

What was measured:
[1] = tested on: Chromobacterium violaceum (CV026); experiment: Quorum sensing inhibition test with bio-reporter CV026 (TLC overlay); type: cell-based; conditions: for Degree of QSI of CV026: Table 1, coumaperine derivatives, 40 mM in ~20 μL acetonitrile dried on TLC plate, overnight, color intensity; for QSI activity against CV026, in words: running text; on Degree of QSI of CV026: key: −: no inhibition; +: low inhibition; ++: medium inhibition; +++: strong inhibition; on Degree of quorum sensing inhibition (QSI), CV026: key: −: no inhibition; +: low inhibition; ++: medium inhibition; +++: strong inhibition
Protocol: (§1) TLC preparation: all derivatives were dissolved in 100% acetonitrile to a concentration of 40 mM. Then placed 20 μlon the same spot on the TLC and let the solvent evaporate before use. CV026: few colonies were transferred to liquid LB (Lenox) for overnight incubation at 30° C. in a 45 degree in orbital shaker. At the O.D. 0.8 3 ml of the starter was added to preheated soft LB agar containing 500 nM of 3-oxo-C6 (Sigma-Aldrich). The mixture was then loaded on the TLC in a glass plate for O.N. incubation in 30° C. The next day inhibition zone was measured, while QS is taking place bacteria produce purple pigment, and when QS is inhibited no pigment is produced. KYC55 (pJZ372) (pJZ384) (pJZ410): 20 μl from the frozen stock into 25 ml AT media (AT buffer×20: 1.57 M KH2PO4 pH=7.3. AT salts mix×20: 300 mM (NH4)2SO4, 13 mM MgSO4, 1.4 mM CaCl2, 0.4 mM FeSO4·7H2O, 0.26 mM MnSO4·H2O. AT media: 50 ml×20 AT-buffer, 50 ml×20 AT-salts, 10 ml 50% (w/v) glucose, add 890 ml to final volume of 1 liter.) For O.N. at 30° C. in an orbital shaker. Into preheated water agar with 25 ml AT-buffer, and 60 μg/ml X-gal and 5 nM 3-oxo-c8 (both from Sigma-Aldrich) 25 ml of the starter was added. Then, that mixture was loaded on the TLC in glass plate for O.N. incubation in 30° C. The next day the inhibition zone was measured. The bacteria produce blue pigment during QS and when QS is inhibited no pigment is produced. KYC55 (pJZ372) (pJZ384) (pJZ410) preservation in tetracycline (1 μg/ml), spectinomycin (100 μg/ml), gentamicin (100 μg/ml) (all antibiotics from Sigma Aldrich) in AT media O.N. then centrifuged and suspend in 15% glycerol frozen and maintained at −80° C.

[2] = tested on: Agrobacterium tumefaciens (KYC55); experiment: Quorum sensing inhibition test with bio-reporter KYC55 (TLC overlay); type: cell-based; conditions: for Degree of QSI of KYC55: Table 1, coumaperine derivatives, 40 mM in ~20 μL acetonitrile dried on TLC plate, overnight, color intensity; for QSI activity against KYC55, in words: running text; on Degree of QSI of KYC55: key: −: no inhibition; +: low inhibition; ++: medium inhibition; +++: strong inhibition; on Degree of quorum sensing inhibition (QSI), KYC55: key: −: no inhibition; +: low inhibition; ++: medium inhibition; +++: strong inhibition
Protocol: as §1

[3] = tested on: quorum sensing (CV026 and KYC55); experiment: Quorum sensing inhibition, overall statement over the bio-reporter bacteria; type: cell-based; conditions: running text
Protocol: as §1
All the synthesized compounds were evaluated for quorum sensing inhibition against two bioreporter bacteria strains, Chromobacterium violaceum (CV026) and Agrobacterium tumefaciens (KYC55) and the results are summarized in Table 1.

[4] = tested on: gram-positive and gram-negative bacteria; experiment: Antibacterial activity, overall statement (diffusion discs test); type: cell-based; conditions: running text
Protocol: All derivatives were dissolved in acetonitrile to a final concentration of 40 mM. Twenty (20) μl were loaded onto Whatman filter paper discs and dried. Bacillus subtilis, Staphylococcus aureus, and Acinetobacter baumannii were grown in LB (Lenox) O.N. One hundred (100) μl from the starter culture was plated on LB agar (Miller) dishes. Streptococcus sobrinus, and Streptococcus mutans grown in Brain Heary Infusion (BHI, Himedia) O.N. were similarly plated on BHI agar dishes. Discs were laid and incubated O.N. in 37° C. and the diameter of inhibition of bacterial growth was measured.
The antibacterial activities of derivatives showing QSI are outlined in Table 4. […] Similar to that idea, synthetic derivatives of furanon (product of marine algae) shown in-vivo QSI activity without antibacterial activity followed by immune response of the infected animal. Phenolic compounds decrease QS and virulence in PA01 and Chromobacterium violaceum. There is increasing number of studies, searching for compounds that targeting non-vital processes to combat bacteria.

[5] = tested on: L428 cells; experiment: in vitro
Protocol: The human Hodgkin's Lymphoma derived L428 cell line was used as a model. The cells were grown in RPMI Medium 1640 with 10% FBS, 1% Glutamine and pen-strep (all from Biological Industries, Israel). […] Thirty thousand (30,000) cells/well were placed in 96-well plates with the coumaperine derivatives at different concentrations or with vehicle (DMSO) at a final volume of 200 μl. The plates were incubated for 48 hrs. at 37° C. and 5% CO2 followed by the addition of 50 μl of the XTT reagent tetrazolium-formazan, (Biological Industries, Israel) was added for 2 hrs. at 37° C., 5% CO2. In living cells, mitochondria […] the tetrazolium-formazan salt, thereby generating a color absorbing product at 450 nm. Absorbance was measured at 450 nm and 650 nm in an enzyme-linked immunosorbent assay (ELISA) plate reader (Multiskan Spectrum, Version 1.2), and recorded. Absorption values at 650 nm were subtracted from the blank and the 450 nm values. The results were normalized to the control (treated with DMSO).
Viability was determined in triplicate in two independent tests. The results were normalized to vehicle (DMSO) treated cells, (100% viability). Mean+SD.

[6] = Table 2, piperlongumine derivatives

Compound	Degree of QSI of CV026 [1]	QSI activity against CV026, in words [1]	Degree of QSI of KYC55 [2]	QSI activity against KYC55, in words [2]	QSI activity overall, in words [3]	Antibacterial activity, in words [4]	Cytotoxic activity, in words [5]	LC50 [5]	Degree of quorum sensing inhibition (QSI), CV026 [1, 6]	Degree of quorum sensing inhibition (QSI), KYC55 [2, 6]	Degree of quorum sensing inhibition (QSI), CV026 ([1]; Table 3, curcumin derivatives)	Degree of quorum sensing inhibition (QSI), KYC55 ([2]; Table 3, curcumin derivatives)
O=C(/C=C/C=C/C=C/c1ccc2c(c1)OCO2)N1CCCCC1 [CP-155, (2E,4E,6E)-7-(benzo[d][1,3]dioxol-5-yl)-1-(piperidin-1-yl)hepta-2,4,6-trien-1-one]	−	inactive	−	inactive	do not inhibit							
O=C(/C=C/C=C/c1ccc2c(c1)OCO2)N1CCCCC1 [CP-262-F1]	−	inactive	−	inactive								
O=C(/C=C/C=C/c1cc(O)c(O)c(O)c1)N1CCCCC1 [CP-262-F2, (2E,4E)-1-(piperidin-1-yl)-5-(3,4,5-trihydroxyphenyl)penta-2,4-dien-1-one]	−	inactive	+	low activity								
O=C(/C=C/c1ccc2c(c1)OCO2)N1CCCCC1 [CP-270, (E)-3-(benzo)-1-(piperidin-1-yl)prop-2-en-1-one]	+++	highly QSI active	+++	highly QSI active		did not	no cytotoxic activity	Non-toxic				
O=C(/C=C/c1ccc(F)cc1)N1CCCCC1 [CP-273]	+	low activity	−	inactive	low QSI			Non-toxic				
COc1ccc(/C=C/C(=O)N2CCCCC2)cc1 [CP-282]	+++	more effective against CV026 than KYC55	++				no cytotoxic activity	Non-toxic				
COc1ccc(/C=C/C(=O)N2CCCCC2)cc1OC [CP-289]	+		+++	more effective against KYC55 than CV026			no cytotoxic activity	Non-toxic				
COc1cc(/C=C/C(=O)N2CCCCC2)ccc1OC(C)=O [CP-291]	−	inactive	++	moderate activity								
COc1cc(/C=C/C(=O)N2CCCCC2)ccc1O [CP-293]	−	inactive	−	inactive								
O=C(CCCCc1ccc2c(c1)OCO2)N1CCCCC1 [CP-THP, Tetrahydro Piperine]	+	low activity	+	low activity								
COc1cc(/C=C/C(=O)N2CCC=CC2=O)cc(OC)c1OC [PL, Piperlongumine, reference compound]		inactive		inactive	inactive				−	−		
COc1cc(/C=C/C(=O)OC(=O)/C=C/c2cc(OC)c(OC)c(OC)c2)cc(OC)c1OC [PL-16A]		inactive		inactive					−	−		
CCNC(=O)/C=C/c1cc(OC)c(OC)c(OC)c1 [PL-17, (E)-N-ethyl-3-(3,4,5-trimethoxyphenyl)acrylamide]		inactive		inactive					−	−		
COc1cc(/C=C/C(=O)NCc2ccccc2)cc(OC)c1OC [PL-20, (E)-N-benzyl-3-(3,4,5-trimethoxyphenyl)acrylamide]		moderate activity		inactive				Non-toxic	++	−		
COc1cc(/C=C/C(=O)N2CCCCC2=O)cc(OC)c1OC [PL-31]		low activity		inactive					+	−		
COc1cc(/C=C/C(=O)CC(=O)/C=C/c2ccc(O)c(OC)c2)ccc1O [curcumin, Curcumin, reference compound]		low activity		inactive							+	−
Piperine [reference compound]	−	inactive	−	inactive	do not inhibit							
